In ChEMBL document CHEMBL1146897, “A chloroquine-like molecule designed to reverse resistance in Plasmodium falciparum” (J Med Chem, 2006):

How the values were obtained:
[1] = tested on: Plasmodium chabaudi; assay: Antimalarial activity in Plasmodium chabaudi infected CF1 mice (Mus musculus) at 64 mg/kg over 4 days
[2] = tested on: Plasmodium falciparum; assay: Antimalarial activity against chloroquine-resistant Plasmodium falciparum Dd2; format: functional, organism-based
[3] = tested on: Plasmodium falciparum; assay: Antimalarial activity against chloroquine-sensitive Plasmodium falciparum D6; format: functional, organism-based

Q: For `CN(CCCNc1ccnc2cc(Cl)ccc12)CCCN1c2ccccc2CCc2ccccc21`, which Activity [1] is on record?
A: >99%

Q: And the IC50 [2]?
A: 5.3 nM

Q: What about the IC50 [3] of the same molecule?
A: 2.9 nM
